Measured values from PubChem BioAssay AID1259407 (Chemical Carcinogenesis Research Information System (CCRIS), 2018).
Active and inactive are the calls of the source. No rule for the calls is given here.

System: CCRIS mutagenicity, Ames/micronucleus/aberration tests
Assay: CCRIS mutagenicity studies
[1] = Test System: AMES SALMONELLA TYPHIMURIUM, Strain/Indicator: TA98, Metabolic Activation: NONE, Method: PREINCUBATION
[2] = Test System: AMES SALMONELLA TYPHIMURIUM, Strain/Indicator: TA1535, Metabolic Activation: NONE, Method: PREINCUBATION
[3] = Test System: AMES SALMONELLA TYPHIMURIUM, Strain/Indicator: TA98, Metabolic Activation: NONE, Method: STANDARD PLATE
[4] = Test System: AMES SALMONELLA TYPHIMURIUM, Strain/Indicator: TA100, Metabolic Activation: NONE, Method: STANDARD PLATE
[5] = Test System: AMES SALMONELLA TYPHIMURIUM, Strain/Indicator: TA102, Metabolic Activation: NONE, Method: STANDARD PLATE
[6] = Test System: AMES SALMONELLA TYPHIMURIUM, Strain/Indicator: TA98, Metabolic Activation: RAT, LIVER, S-9, AROCLOR 1254, Method: PREINCUBATION

O=C1OC(c2ccc(O)cc2)(c2ccc(O)cc2)c2ccccc21
mutagenic call (End Point: In vivo micronucleus, Test System: Peripheral blood normochromatic erythrocytes, Species: Mouse, Strain/Sex: Haploinsufficient p16(Ink4a)p19(Arf), Route: Oral): active; positive | mutagenic call (End Point: In vivo micronucleus, Test System: Polychromatic erythrocytes, Species: Mouse, Strain/Sex: C57BL/6TacBr-[KO]p53[TSG-p53], Route: Oral): active; positive at all days | mutagenic call (Test System: AMES SALMONELLA TYPHIMURIUM, Strain/Indicator: TA98, Metabolic Activation: HAMSTER, LIVER, S-9, AROCLOR 1254 (10%), Method: PREINCUBATION): inactive; negative | mutagenic call [1]: inactive; negative | mutagenic call (Test System: AMES SALMONELLA TYPHIMURIUM, Strain/Indicator: TA98, Metabolic Activation: RAT, LIVER, S-9, AROCLOR 1254 (10%), Method: PREINCUBATION): inactive; negative | mutagenic call (Test System: AMES SALMONELLA TYPHIMURIUM, Strain/Indicator: TA100, Metabolic Activation: HAMSTER, LIVER, S-9, AROCLOR 1254 (10%), Method: PREINCUBATION): inactive; negative | mutagenic call (Test System: AMES SALMONELLA TYPHIMURIUM, Strain/Indicator: TA100, Metabolic Activation: NONE, Method: PREINCUBATION): inactive; negative | mutagenic call (Test System: AMES SALMONELLA TYPHIMURIUM, Strain/Indicator: TA100, Metabolic Activation: RAT, LIVER, S-9, AROCLOR 1254 (10%), Method: PREINCUBATION): inactive; negative | mutagenic call (Test System: AMES SALMONELLA TYPHIMURIUM, Strain/Indicator: TA1535, Metabolic Activation: HAMSTER, LIVER, S-9, AROCLOR 1254 (10%), Method: PREINCUBATION): inactive; negative | mutagenic call [2]: inactive; negative | mutagenic call (Test System: AMES SALMONELLA TYPHIMURIUM, Strain/Indicator: TA1535, Metabolic Activation: RAT, LIVER, S-9, AROCLOR 1254 (10%), Method: PREINCUBATION): inactive; negative | mutagenic call (Test System: AMES SALMONELLA TYPHIMURIUM, Strain/Indicator: TA1537, Metabolic Activation: HAMSTER, LIVER, S-9, AROCLOR 1254 (10%), Method: PREINCUBATION): inactive; negative | mutagenic call (Test System: AMES SALMONELLA TYPHIMURIUM, Strain/Indicator: TA1537, Metabolic Activation: NONE, Method: PREINCUBATION): inactive; negative | mutagenic call (Test System: AMES SALMONELLA TYPHIMURIUM, Strain/Indicator: TA1537, Metabolic Activation: RAT, LIVER, S-9, AROCLOR 1254 (10%), Method: PREINCUBATION): inactive; negative | mutagenic call (Test System: Syrian hamster embryo cells, Strain/Indicator: HPRT/6-thioguanine, Method: Plate): active; positive

COc1cc(O)c2c(O)c3c(=O)oc(C)cc3c(OC)c2c1
mutagenic call (Test System: AMES SALMONELLA TYPHIMURIUM, Strain/Indicator: TA98, Metabolic Activation: MOUSE, LIVER, S-9, AROCLOR 1254, Method: STANDARD PLATE): active; positive | mutagenic call [3]: active; positive | mutagenic call (Test System: AMES SALMONELLA TYPHIMURIUM, Strain/Indicator: TA100, Metabolic Activation: MOUSE, LIVER, S-9, AROCLOR 1254, Method: STANDARD PLATE): active; positive | mutagenic call [4]: active; positive | mutagenic call (Test System: AMES SALMONELLA TYPHIMURIUM, Strain/Indicator: TA102, Metabolic Activation: MOUSE, LIVER, S-9, AROCLOR 1254, Method: STANDARD PLATE): active; positive | mutagenic call [5]: active; positive

O=[N+]([O-])c1cc([N+](=O)[O-])c2cccc3c2c1-c1ccccc1-3
mutagenic call (Test System: AMES SALMONELLA TYPHIMURIUM, Strain/Indicator: TA98(1,8-DNP6), Metabolic Activation: NONE, Method: STANDARD PLATE): active; positive | mutagenic call (Test System: AMES SALMONELLA TYPHIMURIUM, Strain/Indicator: TA98(NR), Metabolic Activation: NONE, Method: STANDARD PLATE): active; positive | mutagenic call [3]: active; positive

COc1ccc2nc(N)[nH]c2c1
mutagenic call [6]: inactive; negative | mutagenic call (Test System: AMES SALMONELLA TYPHIMURIUM, Strain/Indicator: TA100, Metabolic Activation: RAT, LIVER, S-9, AROCLOR 1254, Method: PREINCUBATION): inactive; negative

COc1ccc2c(c1)[C@@H]1CCCC[C@H]1C=C2
mutagenic call (Test System: AMES SALMONELLA TYPHIMURIUM, Strain/Indicator: TA98, Metabolic Activation: RAT, LIVER, S-9, SODIUM PHENOBARBITAL AND BETA-NAPHTHOFLAVONE, Method: STANDARD PLATE): active; positive | mutagenic call (Test System: AMES SALMONELLA TYPHIMURIUM, Strain/Indicator: TA100, Metabolic Activation: RAT, LIVER, S-9, SODIUM PHEOBARBITAL AND BETA-NAPHTHOFLAVONE, Method: STANDARD PLATE): active; positive

Cc1cc(N(CCO)CCO)ccc1N=Nc1ccc(N)cc1
mutagenic call (Test System: AMES SALMONELLA TYPHIMURIUM, Strain/Indicator: TA98, Metabolic Activation: HAMSTER, LIVER, S-9, AROCLOR 1254, Method: STANDARD PLATE): inactive; negative | mutagenic call [3]: inactive; negative | mutagenic call [6]: inactive; negative | mutagenic call (Test System: AMES SALMONELLA TYPHIMURIUM, Strain/Indicator: TA98, Metabolic Activation: RAT, LIVER, S-9, AROCLOR 1254, Method: STANDARD PLATE): inactive; negative | mutagenic call [4]: inactive; negative | mutagenic call (Test System: AMES SALMONELLA TYPHIMURIUM, Strain/Indicator: TA100, Metabolic Activation: RAT, LIVER, S-9, AROCLOR 1254, Method: STANDARD PLATE): inactive; negative | mutagenic call (Test System: AMES SALMONELLA TYPHIMURIUM, Strain/Indicator: TA1535, Metabolic Activation: NONE, Method: STANDARD PLATE): inactive; negative | mutagenic call (Test System: AMES SALMONELLA TYPHIMURIUM, Strain/Indicator: TA1535, Metabolic Activation: RAT, LIVER, S-9, AROCLOR 1254, Method: STANDARD PLATE): inactive; negative | mutagenic call (Test System: AMES SALMONELLA TYPHIMURIUM, Strain/Indicator: TA1537, Metabolic Activation: NONE, Method: STANDARD PLATE): inactive; negative | mutagenic call (Test System: AMES SALMONELLA TYPHIMURIUM, Strain/Indicator: TA1537, Metabolic Activation: RAT, LIVER, S-9, AROCLOR 1254, Method: STANDARD PLATE): inactive; negative | mutagenic call (Test System: AMES SALMONELLA TYPHIMURIUM, Strain/Indicator: TA1538, Metabolic Activation: NONE, Method: STANDARD PLATE): inactive; negative | mutagenic call (Test System: AMES SALMONELLA TYPHIMURIUM, Strain/Indicator: TA1538, Metabolic Activation: RAT, LIVER, S-9, AROCLOR 1254, Method: STANDARD PLATE): inactive; negative

N/C(=N\O)c1cc(O)c(O)c(O)c1
mutagenic call (Test System: AMES SALMONELLA TYPHIMURIUM, Strain/Indicator: TA97, Metabolic Activation: NONE, Method: STANDARD PLATE): active; positive | mutagenic call (Test System: AMES SALMONELLA TYPHIMURIUM, Strain/Indicator: TA97, Metabolic Activation: RAT, LIVER, S-9, DELOR 103, Method: STANDARD PLATE): active; positive | mutagenic call [3]: inactive; negative | mutagenic call (Test System: AMES SALMONELLA TYPHIMURIUM, Strain/Indicator: TA98, Metabolic Activation: RAT, LIVER, S-9, DELOR 103, Method: STANDARD PLATE): inactive; negative | mutagenic call [4]: inactive; negative | mutagenic call (Test System: AMES SALMONELLA TYPHIMURIUM, Strain/Indicator: TA100, Metabolic Activation: RAT, LIVER, S-9, DELOR 103, Method: STANDARD PLATE): inactive; negative | mutagenic call [5]: inactive; negative | mutagenic call (Test System: AMES SALMONELLA TYPHIMURIUM, Strain/Indicator: TA102, Metabolic Activation: RAT, LIVER, S-9, DELOR 103, Method: STANDARD PLATE): inactive; negative

O=[N+]([O-])c1cccc(-c2ccccc2)c1O
mutagenic call [1]: inactive; negative

Cn1nnc2c(C(N)=O)ncn2c1=O
mutagenic call (End Point: IN VITRO CHROMOSOMAL ABERRATIONS, Test System: HUMAN HCT116/3-6 CELLS, Metabolic Activation: NONE): active; positive | mutagenic call (End Point: IN VITRO CHROMOSOMAL ABERRATIONS, Test System: HUMAN HCT116 CELLS, Metabolic Activation: NONE): active; positive | mutagenic call (End Point: IN VITRO CHROMOSOMAL ABERRATIONS, Test System: HUMAN MT1 CELLS, Metabolic Activation: NONE): active; positive | mutagenic call (End Point: IN VITRO CHROMOSOMAL ABERRATIONS, Test System: HUMAN TK6 CELLS, Metabolic Activation: NONE): active; positive

CCN=[N+]([O-])CC
mutagenic call (Test System: AMES SALMONELLA TYPHIMURIUM, Strain/Indicator: TA1535, Metabolic Activation: HAMSTER, LIVER, S-9, AROCLOR 1254, Method: PREINCUBATION): inactive; negative | mutagenic call [2]: inactive; negative | mutagenic call (Test System: AMES SALMONELLA TYPHIMURIUM, Strain/Indicator: TA1535, Metabolic Activation: RAT, LIVER, S-9, AROCLOR 1254, Method: PREINCUBATION): inactive; negative
